Measured values reported in patent US10912841B2, “Antibody-drug-conjugate and its use for the treatment of cancer” (PIERRE FABRE MEDICAMENT, priority 2014, dated 2021).
Where a SMILES comes first, the peptide text is derived from it. [ ]: non-standard residue; d: D form. The star is where a group is joined. Dolaproine = CO[C@@H]([C@@H]1CCCN1)[C@@H](C)C(=O)O; Dil = CC[C@H](C)[C@H](NC)[C@@H](CC(=O)O)OC; X2 = CC(C)[C@@H](C(=O)*)N(C)CCc1ccc(O)cc1

Assays:
MDA-MB-231 cells = assay: ATPLITE antiproliferative assay, MDA-MB-231; format: cell-based; settings: Homo sapiens, 72 h drug treatment
Method: (§1) A549 (Non Small Cell Lung Cancer—ATCC® CCL-185™) and MDA-MB-231 (breast adenocarcinoma—ATCC® HTB-26m) cells were cultured in Minimum Essential Medium Eagle (MEM) with 5% fetal calf serum (FCS) and Dulbecco's modified Eagle Medium (DMEM) with 10% FCS respectively. MCF7 (breast ductal carcinoma—ATCC® HTB-22m) and SN-12C (kidney carcinoma—ATCC) cells were maintained in RPMI1640 medium (without phenol red for MCF7 cells) containing 10% FCS. All the media were supplemented with fungizone (1.25 μg/mL) and penicillin-streptomycin (100 U/100 μg/mL). Cells were cultured under standard conditions in an incubator at 37° C., 5% CO2 and 95% atmospheric humidity.
(§2) Selected drugs were investigated for their antiproliferative activity using an ATPLITE® proliferation assay (Perkin Elmer, Villebon sur Yvette, France) on a comprehensive panel of 4 cell lines. […] On day 4, cell viability was evaluated by dosing the ATP released by viable cells. The number of viable cells was analyzed in comparison with the number of solvent treated cells. The EC50 values were determined with curve fitting analysis (non linear regression model with a sigmoidal dose response, variable hill slope coefficient), performed with the algorithm provided by the […]® Software ([…]® Software Inc., CA, USA).

A549 cells = assay: ATPLITE antiproliferative assay, A549; format: cell-based; settings: Homo sapiens, 72 h drug treatment
Method: as §1, §2

SMILES: CC[C@H](C)[C@@H]([C@@H](CC(=O)N1CCC[C@H]1[C@H](OC)[C@@H](C)C(=O)N[C@@H](Cc1ccccc1)C(=O)OC)OC)N(C)C(=O)[C@@H](NC(=O)[C@H](C(C)C)N(C)CCc1ccc(O)cc1)C(C)C [Compound 27, methyl (S)-2-((2R,3R)-3-((S)-1-((3R,4S,5S)-4-((S)-2-((S)-2-((4-hydroxyphenethyl)(methyl)amino)-3-methylbutanamido)-N,3-dimethylbutanamido)-3-methoxy-5-methylheptanoyl)pyrrolidin-2-yl)-3-methoxy-2-methylpropanamido)-3-phenylpropanoate, trifluoroacetic acid] (X2-V[Dil][Dolaproine]F-OMe)
- EC50 (MDA-MB-231 cells): 0.12 nM
- EC50 (A549 cells): 0.086 nM
